Measurements published in PubChem BioAssay (NCI).
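Each compound was tested at five concentrations against cells in 96-well plates for 48 hours. The concentration for full growth arrest is given as TGI.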

Columns and labels:
Test in all cases: NCI-60 cell line screen, 48 h
UACC-257 melanoma = tested on: UACC-257 melanoma
DU-145 prostate = tested on: DU-145 prostate
KM12 colon = tested on: KM12 colon
786-0 renal = tested on: 786-0 renal
IGROV1 ovarian = tested on: IGROV1 ovarian
HOP-62 NSCLC = tested on: HOP-62 NSCLC
HT29 colon = tested on: HT29 colon
A549 NSCLC = tested on: A549 NSCLC
MDA-N = tested on: MDA-N
PC-3 prostate = tested on: PC-3 prostate
UACC-62 melanoma = tested on: UACC-62 melanoma
NCI/ADR-RES ovarian = tested on: NCI/ADR-RES ovarian
SF-268 CNS = tested on: SF-268 CNS
M14 melanoma = tested on: M14 melanoma
MDA-MB-435 = tested on: MDA-MB-435
HCT-15 colon = tested on: HCT-15 colon
MOLT-4 leukemia = tested on: MOLT-4 leukemia
SW-620 colon = tested on: SW-620 colon
NCI-H522 lung = tested on: NCI-H522 lung
U251 CNS = tested on: U251 CNS
MCF7 breast = tested on: MCF7 breast
OVCAR-4 ovarian = tested on: OVCAR-4 ovarian
SN12C renal = tested on: SN12C renal
OVCAR-8 ovarian = tested on: OVCAR-8 ovarian
SF-539 CNS = tested on: SF-539 CNS
TK-10 renal = tested on: TK-10 renal
HOP-92 NSCLC = tested on: HOP-92 NSCLC
LOX IMVI melanoma = tested on: LOX IMVI melanoma
OVCAR-5 ovarian = tested on: OVCAR-5 ovarian
OVCAR-3 ovarian = tested on: OVCAR-3 ovarian
SNB-75 CNS = tested on: SNB-75 CNS
HS 578T breast = tested on: HS 578T breast
SK-OV-3 ovarian = tested on: SK-OV-3 ovarian
SK-MEL-5 melanoma = tested on: SK-MEL-5 melanoma
MDA-MB-231 breast = tested on: MDA-MB-231 breast
CCRF-CEM leukemia = tested on: CCRF-CEM leukemia
CAKI-1 renal = tested on: CAKI-1 renal
NCI-H23 lung = tested on: NCI-H23 lung
SR leukemia = tested on: SR leukemia
NCI-H460 lung = tested on: NCI-H460 lung
HCC-2998 colon = tested on: HCC-2998 colon
SNB-19 CNS = tested on: SNB-19 CNS
HCT-116 colon = tested on: HCT-116 colon
COLO 205 colon = tested on: COLO 205 colon
UO-31 renal = tested on: UO-31 renal
ACHN renal = tested on: ACHN renal
BT-549 breast = tested on: BT-549 breast
K-562 leukemia = tested on: K-562 leukemia
RXF 393 renal = tested on: RXF 393 renal
SK-MEL-2 melanoma = tested on: SK-MEL-2 melanoma
EKVX NSCLC = tested on: EKVX NSCLC
SF-295 CNS = tested on: SF-295 CNS
T-47D breast = tested on: T-47D breast
SK-MEL-28 melanoma = tested on: SK-MEL-28 melanoma
RPMI-8226 leukemia = tested on: RPMI-8226 leukemia
NCI-H226 lung = tested on: NCI-H226 lung
MALME-3M melanoma = tested on: MALME-3M melanoma

Structure (SMILES): COc1c(C)c(C/C=C(\C)CC/C=C(\C)CC/C=C(\C)CCC=C(C)C)c(OC)c(OC)c1OC
- TGI (UACC-257 melanoma): > 100 µM
- TGI (DU-145 prostate): > 100 µM
- TGI (KM12 colon): > 100 µM
- TGI (786-0 renal): > 100 µM
- TGI (IGROV1 ovarian): > 100 µM
- TGI (HOP-62 NSCLC): > 100 µM
- TGI (HT29 colon): > 100 µM
- TGI (A549 NSCLC): > 100 µM
- TGI (MDA-N): > 100 µM
- TGI (PC-3 prostate): > 100 µM
- TGI (UACC-62 melanoma): > 100 µM
- TGI (NCI/ADR-RES ovarian): > 100 µM
- TGI (SF-268 CNS): > 100 µM
- TGI (M14 melanoma): > 100 µM
- TGI (MDA-MB-435): > 100 µM
- TGI (HCT-15 colon): > 100 µM
- TGI (MOLT-4 leukemia): > 100 µM
- TGI (SW-620 colon): > 100 µM
- TGI (NCI-H522 lung): > 100 µM
- TGI (U251 CNS): > 100 µM
- TGI (MCF7 breast): > 100 µM
- TGI (OVCAR-4 ovarian): > 100 µM
- TGI (SN12C renal): > 100 µM
- TGI (OVCAR-8 ovarian): > 100 µM
- TGI (SF-539 CNS): > 100 µM
- TGI (TK-10 renal): > 100 µM
- TGI (HOP-92 NSCLC): > 100 µM
- TGI (LOX IMVI melanoma): > 100 µM
- TGI (OVCAR-5 ovarian): > 100 µM
- TGI (OVCAR-3 ovarian): > 100 µM
- TGI (SNB-75 CNS): > 100 µM
- TGI (HS 578T breast): > 100 µM
- TGI (SK-OV-3 ovarian): > 100 µM
- TGI (SK-MEL-5 melanoma): > 100 µM
- TGI (MDA-MB-231 breast): > 100 µM
- TGI (CCRF-CEM leukemia): > 100 µM
- TGI (CAKI-1 renal): > 100 µM
- TGI (NCI-H23 lung): > 100 µM
- TGI (SR leukemia): > 100 µM
- TGI (NCI-H460 lung): > 100 µM
- TGI (HCC-2998 colon): > 100 µM
- TGI (SNB-19 CNS): > 100 µM
- TGI (HCT-116 colon): > 100 µM
- TGI (COLO 205 colon): > 100 µM
- TGI (UO-31 renal): > 100 µM
- TGI (ACHN renal): > 100 µM
- TGI (BT-549 breast): > 100 µM
- TGI (K-562 leukemia): > 100 µM
- TGI (RXF 393 renal): > 100 µM
- TGI (SK-MEL-2 melanoma): > 100 µM
- TGI (EKVX NSCLC): > 100 µM
- TGI (SF-295 CNS): > 100 µM

Structure (SMILES): CCOC(=O)COc1cc(-c2ccccc2F)nc2cc3c(cc12)OCO3
- TGI (UACC-257 melanoma): > 100 µM
- TGI (DU-145 prostate): > 100 µM
- TGI (KM12 colon): > 100 µM
- TGI (786-0 renal): > 100 µM
- TGI (IGROV1 ovarian): > 100 µM
- TGI (HOP-62 NSCLC): > 100 µM
- TGI (HT29 colon): > 100 µM
- TGI (T-47D breast): > 100 µM
- TGI (A549 NSCLC): > 100 µM
- TGI (MDA-N): > 100 µM
- TGI (PC-3 prostate): > 100 µM
- TGI (UACC-62 melanoma): > 100 µM
- TGI (NCI/ADR-RES ovarian): > 100 µM
- TGI (SF-268 CNS): > 100 µM
- TGI (M14 melanoma): > 100 µM
- TGI (MDA-MB-435): > 100 µM
- TGI (HCT-15 colon): > 100 µM
- TGI (MOLT-4 leukemia): 84.5 µM
- TGI (SW-620 colon): > 100 µM
- TGI (U251 CNS): > 100 µM
- TGI (MCF7 breast): > 100 µM
- TGI (SK-MEL-28 melanoma): > 100 µM
- TGI (SN12C renal): > 100 µM
- TGI (OVCAR-8 ovarian): > 100 µM
- TGI (SF-539 CNS): > 100 µM
- TGI (TK-10 renal): > 100 µM
- TGI (HOP-92 NSCLC): 98.8 µM
- TGI (RPMI-8226 leukemia): > 100 µM
- TGI (LOX IMVI melanoma): > 100 µM
- TGI (OVCAR-5 ovarian): > 100 µM
- TGI (SNB-75 CNS): > 100 µM
- TGI (SK-OV-3 ovarian): > 100 µM
- TGI (SK-MEL-5 melanoma): > 100 µM
- TGI (MDA-MB-231 breast): > 100 µM
- TGI (NCI-H226 lung): > 100 µM
- TGI (CCRF-CEM leukemia): 55.7 µM
- TGI (CAKI-1 renal): > 100 µM
- TGI (NCI-H23 lung): > 100 µM
- TGI (HCC-2998 colon): > 100 µM
- TGI (MALME-3M melanoma): > 100 µM
- TGI (HCT-116 colon): > 100 µM
- TGI (COLO 205 colon): > 100 µM
- TGI (ACHN renal): > 100 µM
- TGI (BT-549 breast): > 100 µM
- TGI (K-562 leukemia): > 100 µM
- TGI (RXF 393 renal): > 100 µM
- TGI (SK-MEL-2 melanoma): > 100 µM
- TGI (EKVX NSCLC): > 100 µM
- TGI (SF-295 CNS): > 100 µM
